Assay results: article PMC12102759 (Protein Science : A Publication of the Protein Society, 2025)
Like-named read-outs stand apart in the source and are kept apart here.

Test system: G3BP1 NFT2
Type: binding, human
Settings: library DMS-CoV, bait G3BP1 NFT2, prey N, listed as aa = residue placed at this position, column sums to 1

Sequence: APRITFGGPSDSTGSN T13H (APRITFGGPSDSHGSN)
- DMS PSSM value, T (position 13) (peptide APRITFGGPSDSTGSN): 0.0006139

Sequence: RNAPRITFGGPSDSTG D13Q (RNAPRITFGGPSQSTG)
- DMS PSSM value, D (position 13) (peptide RNAPRITFGGPSDSTG): 0

Sequence: APRITFGGPSDSTGSN G14I (APRITFGGPSDSTISN)
- DMS PSSM value, G (position 14) (peptide APRITFGGPSDSTGSN): 0.0004999

Sequence: APRITFGGPSDSTGSN D11K (APRITFGGPSKSTGSN)
- DMS PSSM value, D (position 11) (peptide APRITFGGPSDSTGSN): 0

Sequence: RNAPRITFGGPSDSTG G10Q (RNAPRITFGQPSDSTG)
- DMS PSSM value, G (position 10) (peptide RNAPRITFGGPSDSTG): 0

Sequence: RNAPRITFGGPSDSTG D13H (RNAPRITFGGPSHSTG)
- DMS PSSM value, D (position 13) (peptide RNAPRITFGGPSDSTG): 0

Sequence: RNAPRITFGGPSDSTG T7M (RNAPRIMFGGPSDSTG)
- DMS PSSM value, T (position 7) (peptide RNAPRITFGGPSDSTG): 0

Sequence: APRITFGGPSDSTGSN A1Q (QPRITFGGPSDSTGSN)
- DMS PSSM value, A (position 1) (peptide APRITFGGPSDSTGSN): 0.01117

Sequence: RNAPRITFGGPSDSTG G10R (RNAPRITFGRPSDSTG)
- DMS PSSM value, G (position 10) (peptide RNAPRITFGGPSDSTG): 0

Sequence: RNAPRITFGGPSDSTG S12W (RNAPRITFGGPWDSTG)
- DMS PSSM value, S (position 12) (peptide RNAPRITFGGPSDSTG): 0

Sequence: RNAPRITFGGPSDSTG S14N (RNAPRITFGGPSDNTG)
- DMS PSSM value, S (position 14) (peptide RNAPRITFGGPSDSTG): 0.6905

Sequence: RNAPRITFGGPSDSTG S14F (RNAPRITFGGPSDFTG)
- DMS PSSM value, S (position 14) (peptide RNAPRITFGGPSDSTG): 0

Sequence: APRITFGGPSDSTGSN G14H (APRITFGGPSDSTHSN)
- DMS PSSM value, G (position 14) (peptide APRITFGGPSDSTGSN): 0.009284

Sequence: APRITFGGPSDSTGSN S12H (APRITFGGPSDHTGSN)
- DMS PSSM value, S (position 12) (peptide APRITFGGPSDSTGSN): 0.0346

Sequence: RNAPRITFGGPSDSTG T15D (RNAPRITFGGPSDSDG)
- DMS PSSM value, T (position 15) (peptide RNAPRITFGGPSDSTG): 0

Sequence: APRITFGGPSDSTGSN R3K (APKITFGGPSDSTGSN)
- DMS PSSM value, R (position 3) (peptide APRITFGGPSDSTGSN): 0.0004363

Sequence: RNAPRITFGGPSDSTG P4V (RNAVRITFGGPSDSTG)
- DMS PSSM value, P (position 4) (peptide RNAPRITFGGPSDSTG): 0

Sequence: APRITFGGPSDSTGSN G8E (APRITFGEPSDSTGSN)
- DMS PSSM value, G (position 8) (peptide APRITFGGPSDSTGSN): 0.0007374

Sequence: APRITFGGPSDSTGSN G7S (APRITFSGPSDSTGSN)
- DMS PSSM value, G (position 7) (peptide APRITFGGPSDSTGSN): 0

Sequence: APRITFGGPSDSTGSN R3H (APHITFGGPSDSTGSN)
- DMS PSSM value, R (position 3) (peptide APRITFGGPSDSTGSN): 0.008447

Sequence: APRITFGGPSDSTGSN A1E (EPRITFGGPSDSTGSN)
- DMS PSSM value, A (position 1) (peptide APRITFGGPSDSTGSN): 0.1097

Sequence: RNAPRITFGGPSDSTG A3T (RNTPRITFGGPSDSTG)
- DMS PSSM value, A (position 3) (peptide RNAPRITFGGPSDSTG): 0

Sequence: APRITFGGPSDSTGSN S10G (APRITFGGPGDSTGSN)
- DMS PSSM value, S (position 10) (peptide APRITFGGPSDSTGSN): 0

Sequence: APRITFGGPSDSTGSN S15Q (APRITFGGPSDSTGQN)
- DMS PSSM value, S (position 15) (peptide APRITFGGPSDSTGSN): 0.01454

Sequence: RNAPRITFGGPSDSTG R5F (RNAPFITFGGPSDSTG)
- DMS PSSM value, R (position 5) (peptide RNAPRITFGGPSDSTG): 0

Sequence: APRITFGGPSDSTGSN S10Y (APRITFGGPYDSTGSN)
- DMS PSSM value, S (position 10) (peptide APRITFGGPSDSTGSN): 0.2277

Sequence: RNAPRITFGGPSDSTG P11Y (RNAPRITFGGYSDSTG)
- DMS PSSM value, P (position 11) (peptide RNAPRITFGGPSDSTG): 0

Sequence: RNAPRITFGGPSDSTG G9W (RNAPRITFWGPSDSTG)
- DMS PSSM value, G (position 9) (peptide RNAPRITFGGPSDSTG): 0

Sequence: RNAPRITFGGPSDSTG G10N (RNAPRITFGNPSDSTG)
- DMS PSSM value, G (position 10) (peptide RNAPRITFGGPSDSTG): 0

Sequence: RNAPRITFGGPSDSTG G16H (RNAPRITFGGPSDSTH)
- DMS PSSM value, G (position 16) (peptide RNAPRITFGGPSDSTG): 0

Sequence: RNAPRITFGGPSDSTG I6D (RNAPRDTFGGPSDSTG)
- DMS PSSM value, I (position 6) (peptide RNAPRITFGGPSDSTG): 0

Sequence: APRITFGGPSDSTGSN A1N (NPRITFGGPSDSTGSN)
- DMS PSSM value, A (position 1) (peptide APRITFGGPSDSTGSN): 0.016

Sequence: RNAPRITFGGPSDSTG G9H (RNAPRITFHGPSDSTG)
- DMS PSSM value, G (position 9) (peptide RNAPRITFGGPSDSTG): 0

Sequence: APRITFGGPSDSTGSN G14M (APRITFGGPSDSTMSN)
- DMS PSSM value, G (position 14) (peptide APRITFGGPSDSTGSN): 0.3018

Sequence: APRITFGGPSDSTGSN G8H (APRITFGHPSDSTGSN)
- DMS PSSM value, G (position 8) (peptide APRITFGGPSDSTGSN): 0

Sequence: RNAPRITFGGPSDSTG P11N (RNAPRITFGGNSDSTG)
- DMS PSSM value, P (position 11) (peptide RNAPRITFGGPSDSTG): 0

Sequence: APRITFGGPSDSTGSN F6Q (APRITQGGPSDSTGSN)
- DMS PSSM value, F (position 6) (peptide APRITFGGPSDSTGSN): 0

Sequence: APRITFGGPSDSTGSN I4W (APRWTFGGPSDSTGSN)
- DMS PSSM value, I (position 4) (peptide APRITFGGPSDSTGSN): 0

Sequence: RNAPRITFGGPSDSTG G16W (RNAPRITFGGPSDSTW)
- DMS PSSM value, G (position 16) (peptide RNAPRITFGGPSDSTG): 0

Sequence: APRITFGGPSDSTGSN G7R (APRITFRGPSDSTGSN)
- DMS PSSM value, G (position 7) (peptide APRITFGGPSDSTGSN): 0

Sequence: RNAPRITFGGPSDSTG S12G (RNAPRITFGGPGDSTG)
- DMS PSSM value, S (position 12) (peptide RNAPRITFGGPSDSTG): 0

Sequence: APRITFGGPSDSTGSN I4S (APRSTFGGPSDSTGSN)
- DMS PSSM value, I (position 4) (peptide APRITFGGPSDSTGSN): 0
